Measurements: patent publication US20250230193A1, “CYCLIC COMPOUND HAVING SELECTIVE KRAS INHIBITORY EFFECT ON HRAS AND NRAS” (CHUGAI SEIYAKU KABUSHIKI KAISHA, priority 2022, published 2025)
*1 amine or outer side, *2 acyl side, *3 side chain or, on linkers, in order; H or OH if unused. Where a SMILES comes first, the peptide text is derived from it. Bridges are numbered along the chain shown (N, C = ends). [ ]: non-standard residue; d: D form. The star is where a group is joined. hPhe(3,5-F2-4-CF3) = N[C@@H](CCc1cc(F)c(C(F)(F)F)c(F)c1)C(=O)O; hPhe(3-Cl-4-CF3) = N[C@@H](CCc1ccc(C(F)(F)F)c(Cl)c1)C(=O)O; NPrPhe(4-CF3) = CCCN[C@@H](Cc1ccc(C(F)(F)F)cc1)C(=O)O; NEtPhe(4-CF3) = CCN[C@@H](Cc1ccc(C(F)(F)F)cc1)C(=O)O; X4 = CCCN([C@@H](COCCC(C)C)C(=O)[*:2])[*:1]; NMeGly(cPent) = CN[C@H](C(=O)O)C1CCCC1; X9 = C[C@@](N[*:1])(C(=O)[*:2])C1CC1; NMeD = CN[C@@H](CC(=O)O)C(=O)O; NMeL = CN[C@@H](CC(C)C)C(=O)O; Morpholide = C1CN(*)CCO1; Ac5c = NC1(C(=O)O)CCCC1; Aze = O=C(O)[C@@H]1CCN1; Ac4c = NC1(C(=O)O)CCC1; Sar = CNCC(=O)O

Columns and labels:
[1] = molecular target: GDP-bound NRAS wild-type protein (Homo sapiens, UniProt P01111); assay: Binding to NRAS by surface plasmon resonance (SPR), Single Cycle Kinetics; conditions: SPR
Chain of GDP-bound NRAS wild-type protein (P01111 whole entry): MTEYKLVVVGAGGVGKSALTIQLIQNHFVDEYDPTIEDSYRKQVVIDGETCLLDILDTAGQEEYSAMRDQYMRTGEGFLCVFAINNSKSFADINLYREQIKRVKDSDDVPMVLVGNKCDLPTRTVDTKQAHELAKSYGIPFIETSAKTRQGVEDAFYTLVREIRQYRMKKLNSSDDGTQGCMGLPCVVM

[2] = molecular target: GDP-bound HRAS wild-type protein (Homo sapiens, UniProt P01112); assay: Binding to HRAS by surface plasmon resonance (SPR), Single Cycle Kinetics; conditions: SPR
Chain of GDP-bound HRAS wild-type protein (P01112 whole entry): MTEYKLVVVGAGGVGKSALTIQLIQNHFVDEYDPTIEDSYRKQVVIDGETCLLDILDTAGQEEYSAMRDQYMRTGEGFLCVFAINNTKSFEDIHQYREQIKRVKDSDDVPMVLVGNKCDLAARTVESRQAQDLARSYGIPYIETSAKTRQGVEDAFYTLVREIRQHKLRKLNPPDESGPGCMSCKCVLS

[3] = KD ratio, GDP-bound NRAS wild-type vs GDP-bound KRAS wild-type
[4] = KD ratio, GDP-bound HRAS wild-type vs GDP-bound KRAS wild-type

Q: `CCCN1C(=O)CN(C)C(=O)CN(C)C(=O)[C@H]([C@@H](C)CC)NC(=O)[C@H](CC(C)C)N(C)C(=O)C[C@@H](C(=O)N2CCOCC2)N(C)C(=O)[C@H](C2CCCC2)N(C)C(=O)C2(CCC2)NC(=O)[C@@H]2CCCN2C(=O)[C@H](CCc2ccc(C(F)(F)F)c(Cl)c2)NC(=O)CN(C)C(=O)[C@@H]1COCCC(C)C` [PP1817] ([NMeL]I[Sar][Sar][X4][Sar][hPhe(3-Cl-4-CF3)]P[Ac4c][NMeGly(cPent)][NMeD]-Morpholide; lactam N-11) was tested. Which “NRAS/KRAS (ratio of KD value for NRAS to KD value for KRAS)” value [1, 3] did it give?
A: C (A compound having a KD ratio of 0.1 or more and less than 3 is denoted as C)

Q: What about the “HRAS/KRAS (ratio of KD value for HRAS to KD value for KRAS)” value [2, 4] of the same compound?
A: C (A compound having a KD ratio of 0.1 or more and less than 3 is denoted as C)

Q: For `CC[C@H](C)[C@@H]1NC(=O)[C@H](COC)N(C)C(=O)C[C@@H](C(=O)N2CCOCC2)N(C)C(=O)[C@H](C2CCCC2)N(C)C(=O)C2(CCCC2)NC(=O)[C@@H]2CCCN2C(=O)[C@H](CCc2ccc(C(F)(F)F)c(Cl)c2)NC(=O)CN(C)C(=O)[C@H](Cc2ccc(F)cc2)N2CCCCC[C@@H](C2=O)N(C)C(=O)CN(C)C1=O` [PP0960], which “NRAS/KRAS (ratio of KD value with respect to NRAS to KD value with respect to KRAS)” value [1, 3] is on record?
A: B (a compound having 3 or more and less than 10 is denoted as B)

Q: And the “HRAS/KRAS (ratio of KD value with respect to HRAS to KD value with respect to KRAS)” value [2, 4]?
A: B (a compound having 3 or more and less than 10 is denoted as B)

Q: How did the “NRAS/KRAS (ratio of KD for GDP-bound NRAS wild-type to KD for KRAS)” value ([1]; KD ratio NRAS/KRAS) turn out when `CC[C@H](C)[C@@H]1NC(=O)[C@H](CC(C)C)N(C)C(=O)C[C@@H](C(=O)N2CCOCC2)N(C)C(=O)[C@H](C2CCCC2)N(C)C(=O)C2(CCCC2)NC(=O)[C@@H]2CCCN2C(=O)[C@H](CCc2ccc(C(F)(F)F)c(Cl)c2)NC(=O)CN(C)C(=O)[C@H](Cc2ccc(C(F)(F)F)cc2)N(CC)C(=O)CN(C)C(=O)CN(C)C1=O` [PP0023] ([NMeL]I[Sar][Sar][NEtPhe(4-CF3)][Sar][hPhe(3-Cl-4-CF3)]P[Ac5c][NMeGly(cPent)][NMeD]-Morpholide; lactam N-11) was run?
A: B (a compound having 3 or more and less than 10 is denoted as B)

Q: And the “HRAS/KRAS (ratio of KD for GDP-bound HRAS wild-type to KD for KRAS)” value ([2]; KD ratio HRAS/KRAS)?
A: C (A compound having a KD ratio of 0.1 or more and less than 3 is denoted as C)

Q: For `CCCN1C(=O)CN(C)C(=O)[C@@H]2CCN2C(=O)[C@H]([C@@H](C)CC)NC(=O)[C@H](CC(C)C)N(C)C(=O)C[C@@H](C(=O)N2CCOCC2)N(C)C(=O)[C@H](C2CCCC2)N(C)C(=O)[C@](C)(C2CC2)NC(=O)[C@@H]2CCCN2C(=O)[C@H](CCc2cc(F)c(C(F)(F)F)c(F)c2)NC(=O)CN(C)C(=O)[C@@H]1Cc1ccc(C(F)(F)F)cc1` [PP0772] ([NMeL]I[Aze][Sar][NPrPhe(4-CF3)][Sar][hPhe(3,5-F2-4-CF3)]P[X9][NMeGly(cPent)][NMeD]-Morpholide; lactam N-11), which “NRAS/KRAS (ratio of KD value with respect to GDP-bound NRAS wild-type protein to KD value with respect to KRAS)” value ([1]; KD ratio NRAS/KRAS) is on record?
A: B (a compound having 3 or more and less than 10 is denoted as B)

Q: What about the “HRAS/KRAS (ratio of KD value with respect to GDP-bound HRAS wild-type protein to KD value with respect to KRAS)” value ([2]; KD ratio HRAS/KRAS) of the same compound?
A: B (a compound having 3 or more and less than 10 is denoted as B)

Q: What does the source list for `CC[C@H](C)[C@@H]1NC(=O)[C@H](CC)N(C)C(=O)C[C@@H](C(=O)N(C)C)N(C)C(=O)[C@H](C2CCCC2)N(C)C(=O)C2(CCC2)NC(=O)[C@@H]2CCCCN2C(=O)[C@H](CCc2cc(F)c(C(F)(F)F)c(F)c2)NC(=O)CN(C)C(=O)[C@H](Cc2ccc(C(F)(F)F)cc2)N2CCCC[C@@H](C2=O)N(C)C(=O)CN(C)C1=O` [PP0658]?
A: NRAS/KRAS (ratio of KD value with respect to GDP-bound NRAS wild-type protein to KD value with respect to KRAS) ([1]; KD ratio NRAS/KRAS): C (A compound having a KD ratio of 0.1 or more and less than 3 is denoted as C); HRAS/KRAS (ratio of KD value with respect to GDP-bound HRAS wild-type protein to KD value with respect to KRAS) ([2]; KD ratio HRAS/KRAS): B (a compound having 3 or more and less than 10 is denoted as B)

Q: With `CCO[C@@H]1C[C@H]2C(=O)NC3(CC(C)(C)C3)C(=O)N(C)[C@@H](C(CC)CC)C(=O)N(C)[C@H](C(=O)N(C)C)CC(=O)N(C)[C@H]3CCCCC/C=C/c4ccc(cc4)C[C@@H](C(=O)N(C)CC(=O)N[C@@H](CCc4ccc(Cl)c(Cl)c4)C(=O)N2C1)N1CC/C=C\C[C@@H](C1=O)N(C)C(=O)CN(C)C(=O)[C@H]([C@@H](C)CC)NC3=O` [PP3050] as the compound, how does the “NRAS/KRAS (ratio of KD value with respect to GDP-bound NRAS wild-type protein to KD value with respect to KRAS)” value ([1]; KD ratio NRAS/KRAS, GDP-bound wild-type proteins) read?
A: AA (a compound having 20 or more is denoted as AA)

Q: What about the “HRAS/KRAS (ratio of KD value with respect to GDP-bound HRAS wild-type protein to KD value with respect to KRAS)” value ([2]; KD ratio HRAS/KRAS, GDP-bound wild-type proteins) of the same compound?
A: A (a compound having 10 or more and less than 20 is denoted as A)

Q: `CCO[C@@H]1C[C@H]2C(=O)NC3(CC(C)(C)C3)C(=O)N(C)[C@@H](C(CC)CC)C(=O)N(C)[C@H](C(=O)N(C)C)CC(=O)N(C)[C@@H](C(C)C)C(=O)N[C@@H]([C@@H](C)CC)C(=O)N(C)CC(=O)N(C)[C@H]3C/C=C\CCN(C3=O)[C@@H](Cc3ccc(C)cc3)C(=O)N(C)CC(=O)N[C@@H](CCc3ccc(C(F)(F)F)c(Cl)c3)C(=O)N2C1` [PP2158] was tested. Which “NRAS/KRAS (ratio of KD value with respect to NRAS to KD value with respect to KRAS)” value ([1]; GDP-bound NRAS wild-type vs GDP-bound KRAS wild-type) did it give?
A: AA (a compound having 20 or more is denoted as AA)

Q: What about the “HRAS/KRAS (ratio of KD value with respect to HRAS to KD value with respect to KRAS)” value ([2]; GDP-bound HRAS wild-type vs GDP-bound KRAS wild-type) of the same compound?
A: A (a compound having 10 or more and less than 20 is denoted as A)
